Experimental data taken from patent publication US20230265059A1, “SOLID STATE FORMS OF 6-CARBOXY-2-(3, 5-DICHLOROPHENYL)-BENZOXAZOLE OF FORMULA-I AND PHARMACEUTICALLY ACCEPTABLE SALTS THEREOF” (NURAY CHEMICALS PRIVATE LIMITED, priority 2020, published 2023).

Assay: Drying of the hydrate form to remove water
Format: physicochemical
Settings: hydrate form having moisture content about 6.64%; drying at 55° C. temperature for 24 hours
Excerpt: The hydrate form of 6-carboxy-2-(3,5-dichlorophenyl)-benzoxazole meglumine of Formula-IA according to the present disclosure having moisture content in the range of about 3.5% to about 9% preferably about 5 to 7%. The hydrate form of 6-carboxy-2-(3,5-dichlorophenyl)-benzoxazole meglumine salt of Formula-IA having moisture up to 15 to 20% but the only 5 to 7% water is present in crystal lattice and the excess water molecule is present in surface of the Tafamidis meglumine crystal. […] The hydrate form of 6-carboxy-2-(3,5-dichlorophenyl)-benzoxazole meglumine salt of Formula-IA having moisture content about 6.64% and moisture content about 15% are resulting the same PXRD diffractogram. This confirms the water molecules up to moisture content about 6% is present in crystal lattice and the excess water is present in surface of the crystal. In an another embodiment, the present disclosure, the hydrate form of 6-carboxy-2-(3,5-dichlorophenyl)-benzoxazole meglumine having DSC as depicted in FIG. 1 and having TGA as depicted in FIG. 2.

- water content after drying: not considerably reduced
SMILES: O=C(O)c1ccc2nc(-c3cc(Cl)cc(Cl)c3)oc2c1 [6-carboxy-2-(3,5-dichlorophenyl)-benzoxazole meglumine]
